Measurements taken from patent publication US9193736B2, “PDE 10a inhibitors for the treatment of type II diabetes” (Janssen Pharmaceutica, NV, priority 2013, dated 2015).
pIC50: −log10 of the molar value. Structures can show the parent of a compound that is named as a salt.

Columns and labels:
[1] = target: Rat recombinant PDE10a (rPDE10a) (Rattus norvegicus (Rat), UniProt Q9QYJ6); assay: In vitro assay PDE10a: rat recombinant PDE10a SPA with 3H-cAMP substrate, IC50; assay type: biochemical; settings: 60 nM cAMP, read-out: rPDE10a2 IC50
Method in brief: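 Enzyme expressed in Sf9 cells via baculovirus and Ni-sepharose purified; reaction with 3H-cAMP ran 60 min at rt, stopped with PDE SPA beads. Compounds diluted in DMSO at 100-fold final concentration; blanks omitted enzyme.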

[2] = target: Human recombinant PDE10A2 (Homo sapiens (Human), UniProt Q9Y233); assay: In vitro hPDE10a: human recombinant PDE10A2 scintillation proximity assay, IC50; assay type: biochemical; settings: human recombinant PDE10A2, SPA, 60 nM cAMP; read-out: hPDE10a2 IC50
Method in brief: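 Purified recombinant human PDE10A2 (Ni-sepharose) was assayed by SPA, counting [3H]-AMP product captured on yttrium silicate beads added in zinc sulphate stop solution. Inhibition was expressed as % of activity without compound, with a no-enzyme low control. Repeat data points were aggregated.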

[3] = PDE10a perfused brain permeability study: plasma concentrations at 30 and 120 min, brain concentration at 120 min, brain/plasma ratio; settings: male, Sprague-Dawley, rat; for Kp at 2 h: brain/plasma
Experimental: PDE10a-Brain Permeability Assay
A. PDE10a-Perfused Brain Permeability Study Protocol
Drug administration by oral gavage, subcutaneous injection or intravenous was carried out using male Sprague Dawley rats under IACUC protocol (SH-MET3010). Male Sprague Dawley rats (Charles River) ˜300-350 g were maintained on a 4% standard rodent diet (Test Diet 5001). They are allowed ad libitum access to water and food. Room temperature was maintained at 64° F. and humidity at 30-70%.
Three animals per compound were provided a dose of 2 mg/mL in 20% HpbCD/Tris pH 8 by tail i.v. or 30 mpk p.o. or s.c. in 20% HpbCD/Tris pH 8, with PDE10a antagonists. A first blood sample was collected at 30 min via retro-orbital sinus (anesthetic by 70% CO2/30% O2) into heparinzed plasma separator tubes. The blood was centrifuged and 100 μL plasma was placed into a 96 well plate and saved on dry ice.
After the 120 min, the final blood sample was collected via retro-orbital sinus under anesthesia by IP 0.5 cc injection of a 4/1 mixture of Ketaset: AnaSed [(prepared 10 mL Ketaset (100 mg/mL Ketamine)+2.5 mL AnaSed (20 mg/mL Xylazine)]. The rats were then perfused with 400 mL heparinized saline (10,000 units/L) through the left ventricle of the heart; the brains were then removed (not including the medulla), weighed and homogenized in PBS (4 mL/g tissue). The samples were stored at −80° C. and submitted for chemical analysis of blood and brain concentrations. Endpoints of sample analysis consists of the plasma concentrations at 30 and 120 min, plus brain concentrations at 120 min.

Sequence of Human recombinant PDE10A2 (Q9Y233 267-1055): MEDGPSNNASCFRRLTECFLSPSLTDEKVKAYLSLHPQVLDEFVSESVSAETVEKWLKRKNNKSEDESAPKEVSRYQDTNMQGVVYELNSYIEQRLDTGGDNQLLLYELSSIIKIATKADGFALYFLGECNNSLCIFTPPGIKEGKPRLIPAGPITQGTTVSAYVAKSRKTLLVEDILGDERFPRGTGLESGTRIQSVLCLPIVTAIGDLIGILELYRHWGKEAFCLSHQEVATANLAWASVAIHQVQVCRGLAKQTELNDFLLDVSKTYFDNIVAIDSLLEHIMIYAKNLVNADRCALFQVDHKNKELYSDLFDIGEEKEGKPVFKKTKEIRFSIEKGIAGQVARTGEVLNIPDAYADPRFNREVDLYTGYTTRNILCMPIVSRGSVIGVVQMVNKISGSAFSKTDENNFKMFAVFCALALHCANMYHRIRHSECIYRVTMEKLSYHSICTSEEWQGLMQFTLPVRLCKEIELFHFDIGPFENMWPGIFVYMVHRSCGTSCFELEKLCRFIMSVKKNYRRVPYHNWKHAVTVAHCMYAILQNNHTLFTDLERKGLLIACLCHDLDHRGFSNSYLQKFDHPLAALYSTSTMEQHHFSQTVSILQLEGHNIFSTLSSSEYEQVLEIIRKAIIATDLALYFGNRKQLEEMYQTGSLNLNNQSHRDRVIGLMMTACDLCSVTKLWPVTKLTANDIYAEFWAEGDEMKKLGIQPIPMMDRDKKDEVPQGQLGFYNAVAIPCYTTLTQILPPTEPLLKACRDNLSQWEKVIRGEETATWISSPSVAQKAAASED
Sequence of Rat recombinant PDE10a (rPDE10a) (Q9QYJ6 whole entry): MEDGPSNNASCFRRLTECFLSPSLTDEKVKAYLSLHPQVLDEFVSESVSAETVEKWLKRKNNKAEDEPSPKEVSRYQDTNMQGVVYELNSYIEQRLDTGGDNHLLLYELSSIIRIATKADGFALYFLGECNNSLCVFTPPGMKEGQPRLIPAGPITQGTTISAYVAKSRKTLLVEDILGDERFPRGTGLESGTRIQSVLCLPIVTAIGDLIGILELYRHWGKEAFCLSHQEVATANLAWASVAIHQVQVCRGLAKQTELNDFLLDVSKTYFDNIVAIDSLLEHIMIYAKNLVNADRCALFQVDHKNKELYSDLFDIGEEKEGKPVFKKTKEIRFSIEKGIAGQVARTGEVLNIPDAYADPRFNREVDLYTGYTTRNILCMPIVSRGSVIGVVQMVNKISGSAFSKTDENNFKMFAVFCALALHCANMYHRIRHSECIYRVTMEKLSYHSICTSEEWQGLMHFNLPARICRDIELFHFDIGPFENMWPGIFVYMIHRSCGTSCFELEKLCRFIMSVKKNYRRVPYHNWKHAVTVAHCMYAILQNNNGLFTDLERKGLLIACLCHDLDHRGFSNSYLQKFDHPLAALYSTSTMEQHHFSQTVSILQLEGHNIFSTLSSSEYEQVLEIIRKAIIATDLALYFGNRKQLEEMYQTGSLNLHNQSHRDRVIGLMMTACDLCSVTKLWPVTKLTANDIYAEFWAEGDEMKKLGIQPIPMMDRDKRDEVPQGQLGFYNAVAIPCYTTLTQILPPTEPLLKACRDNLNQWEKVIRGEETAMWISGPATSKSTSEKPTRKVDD

Structure (SMILES) | pIC50 [1] | pIC50 [2] | concentration at 2 h ([3]; brain) | Kp at 2 h [3] | concentration at 2 h ([3]; plasma)
O=C(O)CCC(=O)Nc1ccc(-c2c(/C=C/c3ccc4ccccc4n3)nc3c(N4CCOCC4)ccnn23)cc1 [compound 48, (E)-4-((4-(8-Morpholino-2-(2-(quinolin-2-yl)vinyl)imidazo[1,2-b]pyridazin-3-yl)phenyl)amino)-4-oxobutanoic acid] | 8.22 | 8.05 | 0 ng/g | 0 | 35 ng/mL
Cn1nc(-c2ccc(-c3c(/C=C/c4ccc5ccccc5n4)nc4c(N5CCOCC5)ccnn34)cc2)nc1O [Cpd 74, (E)-2-Methyl-5-(4-(8-morpholino-2-(2-(quinolin-2-yl)vinyl)imidazo[1,2-b]pyridazin-3-yl)phenyl)-2H-1,2,4-triazol-3-ol] | 7.89 | 7.89 | 34.7 ng/g | 0.04 | 857 ng/mL
O=C(O)c1cccc(-c2c(/C=C/c3ccc4ccccc4n3)nc3c(N4CCOCC4)ccnn23)c1 [Cpd 124, (E)-3-(8-Morpholino-2-(2-(quinolin-2-yl)vinyl)imidazo[1,2-b]pyridazin-3-yl)benzoic acid] | 8.05 | 8.40 | 0 ng/g | 0 | 86.6 ng/mL
O=C(O)c1ccc(-c2c(/C=C/c3ccc4ccccc4n3)nc3c(N4CCOCC4)ccnn23)cc1 [compound 40, (E)-4-(8-Morpholino-2-(2-(quinolin-2-yl)vinyl)imidazo[1,2-b]pyridazin-3-yl)benzoic acid trifluoroacetic acid salt] | 8.70 | 8.70 | 0 ng/g | 0 | 499 ng/mL
CS(=O)(=O)NC(=O)c1ccc(-c2c(/C=C/c3ccc4ccccc4n3)nc3c(N4CCOCC4)ccnn23)cc1 [compound 39, (E)-N-(Methylsulfonyl)-4-(8-morpholino-2-(2-(quinolin-2-yl)vinyl)imidazo[1,2-b]pyridazin-3-yl)benzamide] | 8.52 | 8.30 | 0 ng/g | 0 | 147 ng/mL
O=C(Nc1nc2c(N3CCOCC3)ccnn2c1-c1ccc(N2CCNCC2)nc1)c1ccc2ccccc2n1 [Cpd 8, N-(8-Morpholino-3-(6-(piperazin-1-yl)pyridin-3-yl)imidazo[1,2-b]pyridazin-2-yl)quinoline-2-carboxamide trifluoroacetic acid salt] | 6.09 | 6.22 | 38.8 ng/g | 1.16 | 33.7 ng/mL
CS(=O)(=O)NC(=O)c1ccc(-c2c(/C=C/c3ccc4ccccc4n3)nc3c(N4CCOCC4)ccnn23)cc1F [compound 134, (E)-2-Fluoro-N-(methylsulfonyl)-4-(8-morpholino-2-(2-(quinolin-2-yl)vinyl)imidazo[1,2-b]pyridazin-3-yl)benzamide] | 8.15 | 8.40 | 0 ng/g | 0 | 926 ng/mL
O=c1[nH]c(-c2ccc(-c3c(/C=C/c4ccc5ccccc5n4)nc4c(N5CCOCC5)ccnn34)cc2)no1 [Cpd 102, (E)-3-(4-(8-Morpholino-2-(2-(quinolin-2-yl)vinyl)imidazo[1,2-b]pyridazin-3-yl)phenyl)-1,2,4-oxadiazol-5(4H)-one] | 8.30 | 8.40 | 0 ng/g | 0 | 155 ng/mL
COc1cc(-c2c(/C=C/c3ccc4ccccc4n3)nc3c(N4CCOCC4)ccnn23)ccc1C(=O)O [compound 67, (E)-2-Methoxy-4-(8-morpholino-2-(2-(quinolin-2-yl)vinyl)imidazo[1,2-b]pyridazin-3-yl)benzoic acid] | 8.30 | 7.66 | 16.9 ng/g | 0.02 | 725 ng/mL
O=C(O)c1ccc(-c2c(CCc3ccc4ccccc4n3)nc3c(N4CCOCC4)ccnn23)cc1 [compound 41, 4-(8-Morpholino-2-(2-(quinolin-2-yl)ethyl)imidazo[1,2-b]pyridazin-3-yl)benzoic acid] | 9.00 | 9.00 | 0 ng/g | 0 | 38 ng/mL
O=C(O)c1ccc(-c2c(/C=C/c3ccc4ccccc4n3)nc3c(N4CCOCC4)ccnn23)cc1F [compound 103, (E)-2-Fluoro-4-(8-morpholino-2-(2-(quinolin-2-yl)vinyl)imidazo[1,2-b]pyridazin-3-yl)benzoic acid] | 8.52 | 8.52 | 0 ng/g | 0 | 199 ng/mL
O=C(O)C1CCN(c2ccc(-c3c([C@H]4C[C@H](c5ccc6ccccc6n5)C4)nc4c(N5CCOCC5)ccnn34)cc2)CC1 [compound 168, 1-(4-(8-Morpholino-2-((1r,3r)-3-(quinolin-2-yl)cyclobutyl)imidazo[1,2-b]pyridazin-3-yl)phenyl)piperidine-4-carboxylic acid] |  | 8.70 | 30.1 ng/g | 0.02 | 1200 ng/mL
NS(=O)(=O)N1CCN(c2ccc(-c3c(CSc4ccc5ccccc5n4)nc4c(N5CCOCC5)ccnn34)cn2)CC1 [Cpd 20, 4-(5-(8-Morpholino-2-((quinolin-2-ylthio)methyl)imidazo[1,2-b]pyridazin-3-yl)pyridin-2-yl)piperazine-1-sulfonamide] | 8.70 | 7.74 | 152 ng/g | 0.31 | 492 ng/mL
O=C(O)CCc1ccc(-c2c(/C=C/c3ccc4ccccc4n3)nc3c(N4CCOCC4)ccnn23)cn1 [Cpd 125, (E)-3-(5-(8-Morpholino-2-(2-(quinolin-2-yl)vinyl)imidazo[1,2-b]pyridazin-3-yl)pyridin-2-yl)propanoic acid] | 8.70 | 8.70 | 0 ng/g | 0 | 284 ng/mL
O=C(O)CNc1ccc(-c2c(/C=C/c3ccc4ccccc4n3)nc3c(N4CCOCC4)ccnn23)cn1 [Cpd 17, (E)-2-(5-(8-Morpholino-2-(2-(quinolin-2-yl)vinyl)imidazo[1,2-b]pyridazin-3-yl)pyridin-2-ylamino)acetic acid] | 8.70 | 8.52 | 0 ng/g | 0 | 15.7 ng/mL
Oc1ncn(-c2ccc(-c3c(/C=C/c4ccc5ccccc5n4)nc4c(N5CCOCC5)ccnn34)cc2)n1 [Cpd 54, (E)-1-(4-(8-Morpholino-2-(2-(quinolin-2-yl)vinyl)imidazo[1,2-b]pyridazin-3-yl)phenyl)-1H-1,2,4-triazol-3-ol trifluoroacetic acid salt] | 7.96 | 8.15 | 0 ng/g | 0 | 23 ng/mL
O=C(O)C1CCN(c2ccc(-c3c(/C=C/c4ccc5ccccc5n4)nc4c(N5CCOCC5)ccnn34)cc2)CC1 [Cpd 100, (E)-1-(4-(8-Morpholino-2-(2-(quinolin-2-yl)vinyl)imidazo[1,2-b]pyridazin-3-yl)phenyl)piperidine-4-carboxylic acid trifluoroacetic acid salt] | 8.22 | 8.52 | 60.7 ng/g | 0.02 | 2840 ng/mL
CS(=O)(=O)NC(=O)c1ccc(-c2c(C#Cc3ccc4ccccc4n3)nc3c(N4CCOCC4)ccnn23)cc1 [compound 83, N-(Methylsulfonyl)-4-(8-morpholino-2-(quinolin-2-ylethynyl)imidazo[1,2-b]pyridazin-3-yl)benzamide] | 9.00 | 9.00 | 0 ng/g | 0 | 205 ng/mL
c1ccc2nc(SCc3nc4c(N5CCOCC5)ccnn4c3-c3ccc(N4CCNCC4)nc3)ccc2c1 [Cpd 6, 4-(3-(6-(piperazin-1-yl)pyridin-3-yl)-2-((quinolin-2-ylthio)methyl)imidazo[1,2-b]pyridazin-8-yl)morpholine trifluoroacetic acid salt] | 7.60 | 7.70 | 52 ng/g | 0.39 | 135 ng/mL
O=C(O)CNc1ccc(-c2c(C#Cc3ccc4ccccc4n3)nc3c(N4CCOCC4)ccnn23)cn1 [Cpd 24, 2-(5-(8-Morpholino-2-(2-(quinolin-2-yl)ethynyl)imidazo[1,2-b]pyridazin-3-yl)pyridin-2-ylamino)acetic acid trifluoroacetic acid salt] | 9.00 | 9.00 | 1.35 ng/g | 0.2 | 5.37 ng/mL
CS(=O)(=O)NC(=O)c1ccc(-c2c(C#Cc3ccc4ccccc4n3)nc3c(N4CCOCC4)ccnn23)cn1 [Cpd 28, N-(Methylsulfonyl)-5-(8-morpholino-2-(quinolin-2-ylethynyl)imidazo[1,2-b]pyridazin-3-yl)picolinamide] | 9.00 | 9.00 | 0.95 ng/g | 0.01 | 136 ng/mL
O=C(O)c1ccc(-c2c([C@H]3C[C@H](c4ccc5ccccc5n4)C3)nc3c(N4CCOCC4)ccnn23)cc1 [compound 164, 4-(8-Morpholino-2-((1r,3r)-3-(quinolin-2-yl)cyclobutyl)imidazo[1,2-b]pyridazin-3-yl)benzoic acid trifluoroacetic acid salt] |  | > 9.00 | 0 ng/g | 0 | 162 ng/mL
